In patent publication US6576625B2, “Targeted vesicular constructs for cytoprotection and treatment of H. pylori infections” (Panacea Biotic Limited, priority 2001, dated 2003):

Tested on: NSAID induced, gastric lesions followed by colonization of gastric mucosa by orally delivered H. felis
Assay: Ulcer healing (cytorepairing and cytoprotective performance) in rats, Sakita's classification
Format: in vivo, albino male rats of Wistar origin
Conditions: at the same MIC90 level
Description: The cytorepairing and cytoprotective performance of the prepared liposomes was assessed in albino male rats of Wistar origin. The level of ulcer healing (%RUh) following the administration of liposomes against the NSAID induced, gastric lesions followed by colonization of gastric mucosa by orally delivered H. felis suspension culture was studied. The degree of ulceration and rate of ulcer healing was determined following the classification of Sakita (Sakita, T., Oguro, Y., Miwa, T., 1981, In: Handbook of Intestinal Endoscopy 1 ed., Tokyo: Chugi-Igakusha, 375-396) and Tamada (Tamada, F., 1992, In: Diagnostic and Therapeutic Gastrointestinal Endoscopy, KSH Hospital, 23-25), both incorporated herein by reference. Histopathological examination of the gastric mucosa was done using phase contrast research microscope (Leitz-Biomed, Germany).

For `CC1(C)S[C@@H]2[C@H](NC(=O)[C@H](N)c3ccc(O)cc3)C(=O)N2[C@H]1C(=O)O` [amoxycillin, Amoxycillin], the “recovery (ulcer healing)” value was 33.3%.
